Assay results as given in US20260297542A1, “HERBICIDE RESISTANT PLANTS” (SYNGENTA CROP PROTECTION AG, priority 2023, published 2026).
Positions count from the first letter of the chain named. Like-named read-outs stand apart in the source and are kept apart here.

How the values were obtained:
[1] = molecular target: T1, His-TEV-AtPP01 ΔcTP L479N (SEQ ID NO: 372) (Arabidopsis thaliana, UniProt P55826, L479N); experiment: PPO fluorescence IC50 assay, partially purified enzyme; assay type: biochemical
T1 construct: with cTPs removed; made in house; host or cells: E. coli BL21 (DE3), His GraviTrap, partially purified
T1 sequence (P55826 with tags, fused parts or gaps L479N): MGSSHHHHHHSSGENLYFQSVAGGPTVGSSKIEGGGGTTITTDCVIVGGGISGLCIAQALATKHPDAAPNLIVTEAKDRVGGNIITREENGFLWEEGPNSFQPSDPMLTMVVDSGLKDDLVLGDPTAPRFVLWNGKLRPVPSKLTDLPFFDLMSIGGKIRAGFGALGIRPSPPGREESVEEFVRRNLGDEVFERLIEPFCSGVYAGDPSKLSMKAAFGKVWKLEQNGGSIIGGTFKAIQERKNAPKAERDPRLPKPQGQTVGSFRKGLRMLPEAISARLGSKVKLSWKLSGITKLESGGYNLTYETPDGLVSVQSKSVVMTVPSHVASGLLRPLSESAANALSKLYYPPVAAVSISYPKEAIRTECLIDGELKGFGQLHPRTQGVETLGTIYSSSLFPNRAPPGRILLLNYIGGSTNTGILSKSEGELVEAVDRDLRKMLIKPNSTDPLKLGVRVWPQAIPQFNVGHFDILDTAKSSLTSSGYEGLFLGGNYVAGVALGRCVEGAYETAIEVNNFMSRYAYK
Source text: (§1) A pET24 plasmid containing a DNA sequence encoding variants of AtPPO1 derived from Arabidopsis thaliana with cTPs removed and both a 6×His tag and TEV protease cleavage tag added at the N-terminus, codon-optimised for expression in E. coli, and under control of a T7 promoter, was synthesised by Twist Bioscience. The following variants were synthesised: WT AtPPO1 (SEQ ID NO: 370), AtPPO1 L479M (SEQ ID NO: 371), AtPPO1 L479N (SEQ ID NO: 372), AtPPO1 S305L Y426V (SEQ ID NO: 374) and AtPPO1 S305L Y426V L479M (SEQ ID NO: 373). This plasmid was expressed in E. coli BL21 (DE3) with 50 μg/mL kanamycin selection. 10 mL of overnight cultures grown at 37° C. were used to inoculate 1 L AIM (AIM-Terrific Broth Base including Trace elements, Formedium) in 2 L shake flasks. Cultures were grown at 37° C., 200 rpm for 3 hours and then overnight at 26° C. Cells were harvested centrifugation. 5-15 g of cell pellet was lysed in and resuspended in ratio of 1:1.5 in lysis buffer (20 mM Tris pH8, 500 mM sodium chloride, 10% glycerol, 1× complete Protease EDTA-free Inhibitor Tablet (Roche), 10 mM imidazole). The resuspension was sonicated at 75% using 10 cycles of 30 seconds, 40 seconds off. After sonication Triton X-100 was added to the lysates at a final concentration of 0.5%. The lysates were centrifuged at 20,000 rpm for 25 min at 4° C. Cleared lysates were loaded on His GraviTrap (Cytiva) columns, washed with 20 mL of lysis buffer and eluted in elution buffer (20 mM Tris pH8, 500 mM sodium chloride, 10% glycerol, 200 mM imidazole, 0.03% (v/v) Triton X-100). The eluate was desalted on a PD10 column and 2.5-3.2 mL was collected. Protein concentration was measured and calculated using the absorbance at 280 nm. Extracts were diluted 1 in 4 and 10 uL was analysed by SDS PAGE.
(§2) Partially purified Protoporphyrinogen Oxidase enzymes were assayed for activity using fluorescence adapted from the method of Shepherd & Dailey (Anal Biochem. 2005 344(1) 115-121). The assay was performed in black 384 well plates with a clear bottom and the total volume of the reaction mixture was 91 ul. The final assay mixture contained 100 mM K2HPO4 pH7.2, 1 mM Na2EDTA, 5 mM DTT, 20% glycerol (v/v), 0.05% Tween 20 (v/v), 1.1% DMSO (v/v), 1 uM protoporphyrinogen IX and 1.5 nM enzyme. Compounds were dissolved in DMSO at 1 mM and a 4-fold serial dilution carried out to give 8 rates. 1 ul was added to the assay mixture. This gave final compound concentrations of 11, 2.7, 0.69, 0.17, 0.04, 0.01, 0.002, 0.0007 uM. Enzyme and inhibitor were preincubated for 5 minutes prior to starting the reaction with the addition of the substrate. […] IC50s were calculated using GraphPad Prism 7.05 nonlinear regression (Table 6). Each compound was tested in duplicate.

[2] = molecular target: T2, His-TEV-AtPPO1 ΔcTP V002 (SEQ ID NO: 373) (Arabidopsis thaliana, UniProt P55826, L479M/S305L/Y426V); experiment: as above; assay type: biochemical
T2 construct: with cTPs removed; made in house; host or cells: E. coli BL21 (DE3), His GraviTrap, partially purified
T2 sequence (P55826 with tags, fused parts or gaps S305L/Y426V/L479M): T1 sequence (P55826 with tags, fused parts or gaps L479N) with S290L, Y411V, N464M
Source text: as §1, §2

[3] = role: inhibitor, 1 uM protoporphyrinogen IX, <1.0 is below detection limit of assay

SMILES	IC50 [1]	IC50 [2]	IC50 [1, 3]	IC50 [2, 3]
C#CCN1C(=O)COc2cc(F)c(N3C(=O)C4=C(CCCC4)C3=O)cc21 [Flumioxazin, flumioxazin]	1 nM	187 nM		
COC(=O)C(C)ON=Cc1cc(-n2c(=O)cc(C(F)(F)F)n(C)c2=O)c(F)cc1Cl (centres unmarked) [Flufenoximacil, flufenoximacil]			0.8 nM	863 nM
CC(C)N(C)S(=O)(=O)NC(=O)c1cc(-n2c(=O)cc(C(F)(F)F)n(C)c2=O)c(F)cc1Cl [Herbicide E, saflufenacil]	2.6 nM	998 nM		
CCOC(=O)COc1cc(-c2nn(C)c(OC(F)F)c2Cl)c(F)cc1Cl [Pyraflufen-ethyl, pyraflufen-ethyl]	0.8 nM	24.2 nM		
CC(C)Oc1cc(-n2nc(C(C)(C)C)oc2=O)c(Cl)cc1Cl [Oxadiazaon]	6.1 nM	5620 nM		
C#CCN1C(=O)C(F)(F)Oc2cc(F)c(-n3c(=O)n(C)c(=S)n(C)c3=O)cc21 [Herbicide B, trifludimoxazin]	1 nM	2.1 nM		
C=CCOC(=O)C(C)(C)OC(=O)c1cc(-n2c(=O)cc(C(F)(F)F)n(C)c2=O)ccc1Cl [Butafenacil, butafenacil]	0.9 nM	12.5 nM		
C#CCOc1cc(-n2nc3n(c2=O)CCCC3)c(Cl)cc1Cl [Azafenadin]	0.8 nM	149 nM		
C#CCN(C)c1c(C#N)cnn1-c1nn2c(c1Cl)CCCC2 [Pyraclonil]	1.5 nM	5560 nM		
CS(=O)(=O)NC(=O)c1cc(Oc2ccc(C(F)(F)F)cc2Cl)ccc1[N+](=O)[O-] [Fomesafen, fomesafen]	1.4 nM	0.5 nM		
CCOC(=O)[C@]1(C)CC(c2cc(-n3c(=O)n(C)c(=S)n(C)c3=O)c(F)cc2Cl)=NO1 [Herbicide D, ethyl (5S)-3-[2-chloro-5-(3,5-dimethyl-2,6-dioxo-4-thioxo-1,3,5-triazinan-1-yl)-4-fluoro-phenyl]-5-methyl-4H-isoxazole-5-carboxylate]	0.8 nM	335 nM		
CCOC(=O)C1(C)CC(c2cc(-n3c(=O)cc(C(F)(F)F)n(C)c3=O)c(F)cc2Cl)=NO1 (centres unmarked) [Herbicide C, 3-(2-chloro-4-fluoro-5-(3-methyl-2,6-dioxo-4-trifluoromethyl-3,6-dihydropyrimidin-1(2H)-yl)phenyl)-5-methyl-4,5-dihydroisoxazole-5-carboxylic acid ethyl ester]	0.9 nM	121 nM		
CCOC(=O)COc1ncccc1Oc1cc(-n2c(=O)cc(C(F)(F)F)n(C)c2=O)c(F)cc1Cl [Herbicide A, epyrifenacil]	0.9 nM	447 nM		
